SMILES strings stand for the structures. Structures can show the parent of a compound that is named as a salt.

The record followed here is patent US4711889A, “Schistosomicidal acridanone hydrazones” (Hoffman-La Roche Inc., priority 1986, dated 1987).

A short description of this data set: acute toxicity, single oral administration to mice. The following applies: mouse, in vivo. The text has this:
The following Table contains the results obtained with representative compounds of the invention. In the Table there are given for each of listed compounds, the VD50 in mg/kg p.o. and the LD50 in mg/kg single oral administration to mice.
`c1ccc2c(c1)c(=NNc1nccs1)c1ccccc1n2CCN1CCCCC1` [10-[2-(1-piperidinyl)ethyl]-9-acridanone (2-thiazolyl)hydrazone 1.5 HCl]: the LD50 lay in the range of 312 to 625 mg/kg.

`Cl.Cl.NCCn1c2ccccc2c(=NNc2nccs2)c2ccccc21` [10-(2-aminoethyl)-9-acridanone 2-thiazolylhydrazone dihydrochloride] registered a median lethal dose (LD50) of 156 to 312 mg/kg.

The compound `CN(C)CCCn1c2ccccc2c(=NNc2nccs2)c2ccccc21.Cl.Cl` [10-[3-(dimethylamino)propyl]-9-acridanone (2-thiazolyl)hydrazone dihydrochloride] showed a median lethal dose (LD50) of 312 to 625 mg/kg.

For the compound `CN1CCN(CCn2c3ccccc3c(=NNc3nccs3)c3ccccc32)CC1` [10-[2-(4-methyl-1-piperazinyl)ethyl]-9-acridanone (2-thiazolyl)hydrazone. 2.5 HCl], the LD50 lay within 625 to 1250 mg/kg.

`CCN(CC)CCn1c2ccccc2c(=NNc2nccs2)c2ccccc21.Cl.Cl` [10-[2-(diethylamino)ethyl]-9-acridanone (2-thiazolyl)hydrazone dihydrochloride]: the 50% lethal dose (LD50) was > 5000 mg/kg.

For `CN1CCN(CCn2c3ccccc3c(=NN=C3NCCS3)c3ccccc32)CC1` [10-[2-(4-methyl-1-piperazinyl)ethyl]-9-acridanone (2-thiazolidinylidene)hydrazone], the LD50 fell in the range of 156 to 312 mg/kg.

The compound `c1ccc2c(c1)c(=NN=C1NCCS1)c1ccccc1n2CCN1CCCC1` [10-[2-(1-pyrrolidinyl)ethyl]-9-acridanone (2-thiazolidinylidene)hydrazone] displayed an LD50 of 156 to 312 mg/kg.

The compound `CCN(CC)CCn1c2ccccc2c(=NN=C2NCCS2)c2ccccc21` [10-[2-(diethylamino)ethyl]-9-acridanone (2-thiazolidinylidene)hydrazone] returned a median lethal dose (LD50) of 312 to 625 mg/kg.

Consider `CN(C)CCn1c2ccccc2c(=NN=C2NCCS2)c2ccccc21` [10-[2-(dimethylamino)ethyl]-9-acridanone (2-thiazolidinylidene)hydrazone], for which the LD50 is 250 to 500 mg/kg.

Take `CC(=O)N1CCN(CCn2c3ccccc3c(=NN=C3NCCS3)c3ccccc32)CC1` [10-[2-(4-acetyl-1-piperazinyl)ethyl]-9-acridanone (2-thiazolidinylidene)hydrazone]: the median lethal dose (LD50) lay within 1250 to 2500 mg/kg.

Compound `CN(C)CCCn1c2ccccc2c(=NN=C2NCCS2)c2ccccc21` [10-[3-(dimethylamino)propyl]-9-acridanone (2-thiazolidinylidene)hydrazone] had an LD50 of 125 to 250 mg/kg.

For the compound `CN(C)CCn1c2ccccc2c(=NNc2nccs2)c2ccccc21.Cl.Cl` [10-[2-(dimethylamino)ethyl]-9-acridanone (2-thiazolyl)hydrazone dihydrochloride], the LD50 fell in the range of 312 to 625 mg/kg.

The compound `CC(=O)N1CCN(CCn2c3ccccc3c(=NNc3nccs3)c3ccccc32)CC1.Cl.Cl` [10-[2-(4-acetyl-1-piperazinyl)ethyl]-9-acridanone (2-thiazolyl)hydrazone dihydrochloride] came in with a 50% lethal dose (LD50) of 312 to 625 mg/kg.

The term LD50 denotes the dose expected to kill half of the subjects tested. Low readings indicate a more toxic substance, high ones a less toxic substance.
